# In US12599592B2, “Therapeutic small molecules for treatment of pulmonary hypertension” (UNIVERSITY OF PITTSBURGH—OF THE COMMONWEALTH SYSTEM OF …, priority 2020, dated 2026):
# Columns and labels:
# mitochondrial Complex I [1] = experiment: Mitochondrial Complex I activity in PAECs; format: cell-based, human
# [2] = system: monocrotaline-exposed pulmonary arterial hypertension rats; experiment: Monocrotaline (MCT) pulmonary arterial hypertension rat model; details: BRD2889 5 mg/kg i.p. every 5 days, Days 12-26 post-MCT
# Method: (§1) Following euthanasia, right ventricle/[left ventricle+septum]
# (§2) Measurement of GST activity: The GST activity from lung tissue and PAECs was assayed using GST assay kit (Cayman, MI, USA) per the manufacturer's instructions.
# [3] = system: SU5416-hypoxic pulmonary arterial hypertension rats; experiment: SU5416-hypoxia pulmonary arterial hypertension rat model; format: in vivo, Sprague-Dawley rats
# Method: Briefly, 10 week old male Sprague-Dawley rats were injected i.p. with 20 mg/kg of SU5416 (Sigma), placed in normobaric hypoxia (10% O2) for 3 weeks and then transferred to normoxia for 2 weeks. During hypoxic exposure, chambers were opened twice a week for cleaning and replenishment of food and water. […] For BRD2889 vs. vehicle control dosing, i.p. injections every 5 days (5 mg/kg) were administered during the final two weeks of normoxia. Oxygen concentrations were continuously monitored with blood gas analyzers.
# as §1, §2
# (§3) Rodent echocardiography: Echocardiography was performed using a 15-45 MHz transthoracic transducer and a Visual Sonics Vevo 3100 system (Fujifilm). Inhaled isoflurane anesthesia was used at 2% in 100% O2 during positioning and hair removal and then decreased to isoflurane 0.8% during imaging.
# mitochondrial Complex I [4] = experiment: Mitochondrial Complex I activity in PASMCs; format: cell-based, human; details: IL-6/sIL-6R + hypoxia
# Method: (§4) In IL-6/sIL-6R+hypoxia experiments, a human recombinant IL-6/IL-6R alpha protein chimera (25 ng/ml, Millipore) was administered at 70-80% confluency for 48 h in complete media along with vehicle control (DMSO, Sigma-41639). BRD2889 (1 uM) vs. vehicle control were added, as indicated, and placed into a hypoxia chamber for 24 h. The hypoxia chamber (modular incubator chamber) was obtained from Billups-Rothenberg Inc. (Del Mar, Calif) and placed in regulated CO2 incubator at 37° C.
# Mitochondria isolation: Mitochondrial fraction from cultured PAECs with drug and siGSTP1 using the Mammalian Mitochondria Isolation Kit for Tissue & Cultured Cells (Biovision, Inc.) according to the manufacturer's instructions.
# Measurement of mitochondrial complex activities: Complex I activity of isolated mitochondria were measured using Complex I Enzyme Activity Microplate assay kit (Abcam, ab109721) according to the manufacturer's protocol. These enzymes were captured within the wells of the microplate coated by the corresponding complex enzyme antibody, and activities were detected colorimetrically.
# hypoxic IL-6 Tg mice = experiment: Hypoxic IL-6 transgenic pulmonary arterial hypertension mouse model; format: in vivo, IL-6 transgenic C57BL/6 mice
# Method: as §1
# Pulmonary-specific IL-6 transgenic mice (C57BL/6 background) were described previously (Steiner M K et al. Circ Res. 2009, 104, 236-244, 228p following 244). These mice were bred in house, and 12 week old male transgenic mice vs. control littermates were compared. Mice were injected i.p. every 3 days with vehicle control (2.5% DMSO) vs. BRD2889 (5 mg/kg vs. 10 mg/kg), followed by exposure to normobaric hypoxia (10% O2; OxyCycler chamber, Biospherix Ltd, Redfield, NY) for 14 days, as described (Steiner M K et al. Circ Res. 2009, 104, 236-244, 228p following 244).
# as §3
# PAECs = experiment: BrdU proliferation assay in PAECs; format: cell-based, human
# Method: BrdU growth assay: Cell proliferation was assayed relative to day 0 using a BrdU Cell Proliferation Assay Kit (#6813, Cell Signaling) according to the manufacturer's protocol after incubation for 2 h with BrdU.
# PASMCs = experiment: Apoptosis (caspase 3/7) in PASMCs; format: cell-based, human; details: IL-6/sIL-6R + hypoxia
# Method: as §4
# Cellular apoptosis: Caspase-3/7 activity was quantified using the Caspase-Glo 3/7 Assay (Promega), according to manufacturer's instructions. Caspase-3/7 activity was normalized to total protein content determined by BCA method (Thermo Fisher Scientific).
# [5] = system: C43 genes (ISCU, mTOR); EDN1, VCAM1, ICAM1; experiment: RT-qPCR of Cluster 43 and proinflammatory genes in PAECs; format: cell-based, human
# Method: as §4, with “BRD2889 (1 uM) vs. vehicle control were added, as indicated, and placed into a hypoxia chamber for 24 h.” left out
# RT-qPCR analysis: Cells were lysis in 1 ml of QiaZol reagent (Qiagen). Total RNA content was extracted using the RNeasy kit (Qiagen), according to the manufacturer's instructions. Total RNA concentration was determined using a BioTek Synergy multimode plate reader. Messenger RNAs were reverse transcribed to generate cDNA using the Multiscript RT kit (Thermo Fisher Scientific). cDNA for specific gene targets was amplified and quantified via fluorescently-labeled Taqman primer sets and Taqman fast advanced master mix (Thermo Fisher Scientific) using an Applied Biosystems QuantStudio 6 Flex Real-Time PCR System.
# [6] = hypoxic PAECs with siRNA knockdown of ISCU
# [7] = BRD2889 5 mg/kg i.p. every 5 days
# [8] = BRD2889 10 mg/kg vs vehicle, 10 days of treatment
# [9] = BRD2889 5 and 10 mg/kg IP every three days
structure (smiles),measurement,setting,value
COc1ccc(C#CC2CCCN(C(=O)/C=C/c3cc(OC)c(OC)c(OC)c3)C2=O)cc1 (stereo not shown) [BRD2889],mitochondrial Complex I activity,"mitochondrial Complex I [1]; PAECs, IL-6/sIL-6R + hypoxia",partially rescued
same,iron-sulfur-dependent mitochondrial Complex I activity,mitochondrial Complex I [1]; hypoxic PAECs,reversed the decrease
same,hypoxia-induced decrease in mitochondrial Complex I activity,mitochondrial Complex I [1]; [6],did not reverse
same,Fulton index (RV/LV+S),[2],reduced
same,RVSP,[2],reduced
same,arteriolar muscularization,[2],reduced
same,cleaved caspase-3 (CC-3),[2],decreased
same,endothelial ISCU,[2],increased
same,lung GST activity,[2],decreased
same,Fulton index (RV/LV+S),[3]; [7],reduced
same,ISCU in CD31+ endothelium,[3]; [7],increased
same,arteriolar muscularization,[3]; [7],reduced
same,cleaved caspase-3 (CC-3) in CD31+ endothelium,[3]; [7],decreased
same,right ventricular systolic pressure (RVSP),[3]; [7],reduced
same,lung GST activity,"[3]; BRD2889 5 mg/kg i.p. every 5 days, final 2 weeks in normoxia",decreased
same,"left ventricular function (LVPW thickness, LVEF, LVFS)",[3]; BRD2889 vs vehicle,did not exhibit altered left ventricular function
same,ascites,[3]; three SU5416-hypoxic rats treated with drug,accumulation of mild ascites
same,mitochondrial Complex I activity,mitochondrial Complex I [4],did not affect
same,lung total GST enzyme activity,"hypoxic IL-6 Tg mice; BRD2889 5 mg/kg (low) and 10 mg/kg (high) IP every three days, 14 days hypoxia",dose-dependent reduction
same,heart rate,hypoxic IL-6 Tg mice; [8],No differences
same,"left ventricular function (fractional shortening, ejection fraction, PW thickness)",hypoxic IL-6 Tg mice; [8],No differences
same,Fulton index,hypoxic IL-6 Tg mice; [9],dose-dependent reduction
same,"ISCU in arterioles, particularly CD31+ endothelium (in situ staining)",hypoxic IL-6 Tg mice; [9],rescued
same,RVSP,hypoxic IL-6 Tg mice; [9],dose-dependent reduction
same,arteriolar muscularization,hypoxic IL-6 Tg mice; [9],reduced
same,cleaved caspase-3 (CC-3) in whole vessels,hypoxic IL-6 Tg mice; [9],decreased
same,proliferation (BrdU),"PAECs; PAECs, IL-6/sIL-6R + hypoxia",increased proliferation
same,proliferation (BrdU incorporation),PAECs; hypoxic PAECs,reversed the decrease
same,hypoxia-induced decrease in proliferation,PAECs; [6],did not reverse
same,apoptosis,PASMCs,only subtly changed
same,"inflammatory gene transcripts (EDN1, VCAM1, ICAM1)",[5]; IL-6/sIL-6R + hypoxia,normalized this upregulation
same,"C43 genes MID2, BANP, AGTRAP transcripts","[5]; hypoxia 48 hrs, BRD2889 5 uM",unaffected in hypoxia
same,ISCU transcript (RT-qPCR),"[5]; hypoxia 48 hrs, BRD2889 5 uM",fully reversing the hypoxic decrease
same,mTOR transcript (RT-qPCR),"[5]; hypoxia 48 hrs, BRD2889 5 uM",partially reversing the decrease
